Measurements published in patent US20250313546A1, “NUCLEIC ACID BINDERS” (UNIVERSITY OF STRATHCLYDE, priority 2022, published 2025).
In brackets after ≈: the same amount, converted by molar mass.

What was measured:
[1] = system: Staphylococcus aureus (ATCC 43300); assay: Antibacterial MIC, broth microdilution (CLSI); format: cell-based; settings: for MIC80: Staphylococcus aureus, ATCC43300, read-out: MIC80 S. aureus; for S. aureus Selectivity Indices, Group: SI, IC50 (μM)/MIC80 (μM), HEK293 cytotoxicity, Alkyl Amidines and NH Pyrroles
[2] = system: Escherichia coli (ATCC 25922); assay: Antibacterial MIC, broth microdilution (CLSI); format: cell-based; settings: Escherichia coli, ATCC25922; read-out: MIC80 E. coli
[3] = system: Scedosporium spp.; assay: Expanded set of filamentous fungi, MIC broth microdilution (CLSI); format: cell-based
[4] = system: Lomentospora prolificans; assay: as above; format: cell-based; settings: isolate S2, MIC at 50% inhibition
[5] = system: A. fumigatus A1160 (MFIG001); settings: Aspergillus fumigatus, read-out: MIC99 A. fumigatus A1160
[6] = system: Rhizopus arrhizus (NEQAS12.35321); settings: read-out: MIC99 Rhizopus arrhizus
Method: (§1) The Minimum Inhibitory Concentration (MIC, at 99% inhibition) of the compounds was determined using the broth microdilution method as recommended by EUCAST (EUCAST Definitive Document E.DEF 9.3.2, Method for the determination of broth dilution minimum inhibitory concentrations of antifungal agents for conidia forming moulds and EUCAST Definitive Document E.DEF 7.3.2 Method for the determination of broth dilution minimum inhibitory concentrations of antifungal agents for yeasts).

[7] = system: Candida glabrata (ACPF3309); settings: Nakaseomyces glabratus, read-out: MIC99 Candida glabrata
Method: as §1

[8] = system: Fusarium oxysporum (F7098); settings: read-out: MIC99 Fusarium oxysporum
Method: as §1

[9] = In vivo pharmacokinetics mouse model (distribution and tolerability); design: species or system male CD-1 mice
Method: The procedure used for in vivo pharmacokinetics experiments is described below.
1 mL of 2 mg/mL stock solution was prepared by adding 500 μL of DMSO to 2 mg of compound and vortexed well until the compound had fully dissolved. 500 μL of Saline for Injection (SFI, warmed to 37° C.) was added dropwise, under vortexing.
Working Solutions Immediately prior to dosing, the 2 mg/mL stock solution was diluted 1:5 to produce 0.4 mg/mL dosing solution. 2 mL of 0.4 mg/mL solution was prepared by adding 400 μL of […] stock solution to 1600 μL diluent (10% DMSO, 90% SFI).
The dosing solution was administered to 7 male CD-1 mice, at 5 mL/kg via intravenous (IV) injection (e.g. 30 g mouse with 150 μL). 3 mice were grouped for the blood sampling study and 4 mice were grouped for the tissue sampling study.
At each time point (0.5, 2, 4, 8 hours), 20 μL blood samples were collected from mice by tail prick into 20 μL EDTA blood collection capillary tubes on wet ice. 20 μL blood samples were added directly to the appropriate well of a 96 deep well plate and mixed with 20 μL of distilled water and the samples stored at −80° C. prior to bioanalysis.
At each time point (0.25 and 1 hour), the lung, both kidneys and the liver (left lateral lobe) were removed from culled mice (two per time point) and individually placed in pre-weighed bead beater tubes, which were then weighed to determine tissue weight. 4× weight/volume sterile water was added to the tissue. Tissues were homogenized in a Precellys bead beater then snap frozen at […] until bioanalysis.
Initial stock of Ia10 was made to 1 mg/mL in DMSO. Calibration and quality controls were made by spiking 1 mg/mL DMSO stock into desired matrix and serial dilution in matrix to desired concentration. Calibration range=1 ng/mL-5000 ng/mL. All samples were crashed out in 5× volume of Acetonitrile. Samples were centrifuged and supernatant diluted 1:3 in water to be analysed on LCMS.
Compound Ia10 has been evaluated in an in vivo pharmacokinetics mouse model in order to investigate compound distribution and tolerability.

[10] = system: SARS-CoV-2 (hCoV-19/Australia/VIC01/2020); assay: SARS-CoV-2 microplaque inhibition assay in Vero-E6 cells; format: cell-based
[11] = isolate S1, MIC at 50% inhibition
[12] = isolate S3, MIC at 50% inhibition

For `C/N=C(\CCNC(=O)c1cc(NC(=O)c2cc(NC(=O)c3ccc(/C=C/c4ccc(N(C)C)cc4)nc3)cn2C)cn1C)NC` [Ia8, 6-((E)-4-(dimethylamino)styryl)-N-(1-methyl-5-((1-methyl-5-(((E)-3-(methylamino)-3-(methylimino)propyl)carbamoyl)-1H-pyrrol-3-yl)carbamoyl)-1H-pyrrol-3-yl)nicotinamide], the MIC80 [1] was 5 to 25 µM (≈ 3.05 to 15.2 µg/mL), the MIC80 [2] was > 100 µM and the MIC50 [3, 11] was 1 to 8 µg/mL (≈ 1.64 to 13.1 µM). For the same compound, the MIC50 [3, 12] was 1 to 8 µg/mL (≈ 1.64 to 13.1 µM), the MIC50 [4] was 1 to 8 µg/mL (≈ 1.64 to 13.1 µM) and the MIC99 [5] was 5 to 25 µg/mL (≈ 8.2 to 41 µM). For the same compound, the MIC99 [6] was 5 to 25 µg/mL (≈ 8.2 to 41 µM), the MIC99 [7] was 5 to 25 µg/mL (≈ 8.2 to 41 µM) and the MIC99 [8] was < 5 µg/mL.
With `C/N=C(/CCNC(=O)c1cc(NC(=O)c2cc(NC(=O)c3ccc(/C=C/c4cnc5ccccc5c4)cc3)cn2C)cn1C)NC` [Ia10, 1-methyl-4-(1-methyl-4-(4-((E)-2-(quinolin-3-yl)vinyl)benzamido)-1H-pyrrole-2-carboxamido)-N—((Z)-3-(methylamino)-3-(methylimino)propyl)-1H-pyrrole-2-carboxamide] the “S. aureus Selectivity Indices, Group” value [1] was “B (Group B: 3 < SI <= 5)”, the MIC80 [1] was < 5 µM and the MIC80 [2] was > 100 µM. For the same compound, the MIC50 [3, 11] was ≤ 1 µg/mL, the MIC50 [3, 12] was ≤ 1 µg/mL and the MIC50 [4] was ≤ 1 µg/mL. For the same compound, the “Blood conc @ 1 Hr” value ([9]; 2 mg/kg IV dose in mice, blood, 1 Hr) was 204 nM, the “Lung conc @ 1 Hr” value ([9]; 2 mg/kg IV dose in mice, lung, 1 Hr) was 28.968 µM and the “Accumulation in lung tissue” value ([9]; 2 mg/kg IV in mice) was “remarkable accumulation in lung tissue”. The Tolerability ([9]; 2 mg/kg IV in mice (higher doses were not investigated)) was “well tolerated”, the Kp at 1 h ([9]; male, CD-1, mouse, lung vs whole blood, 2 mg/kg IV dose in mice, lung vs blood at 1 Hr, read-out: Lung accumulation factor) was ~142 and the MIC99 [5] was < 5 µg/mL. For the same compound, the MIC99 [6] was 5 to 25 µg/mL (≈ 8.11 to 40.5 µM), the MIC99 [7] was < 5 µg/mL and the MIC99 [8] was 5 to 25 µg/mL (≈ 8.11 to 40.5 µM).
In the case of `[H]/N=C(\CCNC(=O)c1cc(NC(=O)c2cc(NC(=O)c3ccc(C=Cc4ccc(N(C)C)cc4)nc3)cn2C)cn1C)NC` [Ia9, (E)-6-(4-(dimethylamino)styryl)-N-(5-((5-((3-imino-3-(methylamino)propyl)carbamoyl)-1-methyl-1H-pyrrol-3-yl)carbamoyl)-1-methyl-1H-pyrrol-3-yl)nicotinamide], the “S. aureus Selectivity Indices, Group” value [1] is reported as “C (Group C: 5 < SI <= 10)”, the MIC80 [1] is reported as 5 to 25 µM (≈ 2.98 to 14.9 µg/mL) and the MIC80 [2] is reported as > 100 µM. For the same compound, the MIC50 [3, 11] was 1 to 8 µg/mL (≈ 1.68 to 13.4 µM), the MIC50 [3, 12] was ≤ 1 µg/mL and the MIC50 [4] was ≤ 1 µg/mL. The “SARS-CoV-2 Selectivity Indices, Group” value ([10]; SI, IC50 (μM)/IC50 (μM), HEK293 cytotoxicity, Alkyl Amidines and NH Pyrroles) was “B (Group B: 4.1 < SI <= 10)”, the IC50 ([10]; Severe acute respiratory syndrome coronavirus 2, Vero C1008, plaque inhibition, Vero-E6 cells, read-out: IC50 SARS-CoV-2) was 2 to 8 µM and the MIC99 [5] was 5 to 25 µg/mL (≈ 8.39 to 42 µM). For the same compound, the MIC99 [6] was 5 to 25 µg/mL (≈ 8.39 to 42 µM), the MIC99 [7] was 5 to 25 µg/mL (≈ 8.39 to 42 µM) and the MIC99 [8] was < 5 µg/mL.
